# No end group written: not given here.
# What was measured:
# MDA-MB-486 = experiment: In vitro cytotoxic assay (CTL) of ImMucin-stimulated HLA-A2.1 positive T-cell clone; format: cell-based; settings: MDA-MB-486 Human Brest Carcinoma, MUC1 ++, ratio 1:50
# Experimental: (§1) Effector cells were ImMucin specific enriched T-Cell clone. Viable lymphocytes (effector cells), were centrifugation, resuspended in RPMI-HEPES medium, and admixed at different ratios with 5×10^3 35S methionine-labeled, tumor cells. CTL assays were performed in U-shaped microtiter wells, at 37° C., 5% CO2 for 5 hours. Cultures were terminated by centrifugation at 1000 rpm for 10 min at […]. A total of 100 µl of the supernatants was mixed with scintillation fluid and measured in a □□ counter (Becton Dickinson Canberra Australia). Percentage of specific lysis was calculated as follows: % lysis=(cpm in experimental well−cpm spontaneous release)/(cpm maximal release−cpm spontaneous release)×100. Spontaneous release was determined by incubation of 100 µl-labeled target cells with 100 µl of medium. Maximal release was determined by lysis of target cells in 100 µl 10% TrytonX-100.
# (§2) In order to further evaluate the class II/class I cross presentation as well as the specificity and function of the T-cell clones, their class I restricted lysis potential was analyzed. For this assay the clones were screened for Class I HLA-A2.1 expression and their potential to lyse MUC1 and HLA-A2.1 positive and negative cell-lines was evaluated. […] The results summarized in Table 10 show a MUC1 as well as HLA-A2.1-restricted lysis. A breast tumor cell such as MDA-MB-231 which expresses both MUC1 and HLA-A2.1 was lysed effectively (23%), while another breast tumor cell line MDA-MB-468 which expresses only MUC1 but not the HLA-2.1 was not lysed al all. Other control cell-lines didn't manifest any lysis (see table 10).
# Molt-4 = experiment: as above; format: cell-based; settings: Molt-4 Human T cell Leukemia, MUC1 −, ratio 1:50
# Experimental: as §1, §2
# K562 = experiment: as above; format: cell-based; settings: K562 Human Myalo Leukeima, MUC1 +, ratio 1:50
# Experimental: as §1, §2
# MDA-MB-231 = experiment: as above; format: cell-based; settings: MDA-MB-231 Human Brest Carcinoma, MUC1 +++, ratio 1:50
# Experimental: as §1, §2
# HT-29 = experiment: as above; format: cell-based; settings: HT-29 Human Colon Carcinoma, MUC1 −, ratio 1:50
# Experimental: as §1, §2
# [1] = test system: blood samples derived from naive donors; experiment: Summary: ImMucin specific activation in blood samples of naive donors; format: cell-based, human; settings: out of 14 different blood samples from naive donors
# Source text: In summary, out of 14 different blood samples derived from naive donors, in 12 ImMucin specific activation could be observed. It is therefore clear that ImMucin is able to induce antigen specific CD4^+ as well as CD8^+ T cell activation which can lead to effective anti-tumor vaccine properties including lysis, cytokine release and memory in the majority of the population.
# [2] = test system: T-Cell specific subpopulation (Clones); experiment: ELISA of cytokine secretion by the T-cell specific subpopulation (clones) stimulated with peptides; format: cell-based, human; settings: two experiments, four donors
# Source text: Thawed PBLs underwent 1st stimulation with ImMucin pulsed Autologues DC at a ratio of 20:1 and cultured for 7 days in dedicated T cell Medium. T cell medium contained RPMI medium supplemented with 10% FCS, L-Glutamine, Sodium Pyruvate, MEM-EAGLE non-essential amino-acids, HEPES and Gentamycin Sulphate (Bet-Haemek Industries, IL) as well as with 50 IU/ml of recombinant IL-7 (Cytolab IL). For the second stimulation, PBL were transferred to adherent autologues ImMucin-pulsed PBMC and cultured for additional 5 days in T cell Medium. At the end of the 5 days, medium was partial replaced with fresh medium containing 1 ug/ml of ImMucin and 50 IU/ml IL-2 for a third stimulation of 48 h at 37° C. Following the last stimulation ImMucin T cell line was checked for immune activation properties.
# Cytokine release was studied during the culture of stimulated T-cells. The evaluated samples were collected from the T cell culture medium on day 2, 3, and 5 and stored until use at −20° C.
# […] of the selected capture antibody (e.g. anti-Hu IFN-Gamma, or anti-Hu TNF-alfa or anti IL-2) were added to each well at the final concentration of 5 μg/ml in PBS. Plates were incubated for 2 h at R.T. or over night at 4° C. Next, […] of blocking solution were added for an incubation of 2 h at R.T. […] of evaluated samples were added in duplicate into 2 wells for 2 hours at RT. After 2 h of incubation at R.T plates were washed λ4 times in washing solution. In the next step, a Biotin-conjugated detection antibody (relevant to coated antibody) was added at a final concentration of 10 μg/ml in total volume of 100 μl for 1 h at R.T. Finally, 100 μl/well working dilution (1:10000 in Blocker solution) of Streptavidin-HRP were added to each well and incubated for 1 h at R.T.
# Plates were washed λ6 times with PBS-Tween (0.4%) and 100 μl/well of TMB/E Solution (CHEMICON, Catalog #ES001) was added. The plates were then exposed until blue color appeared in the wells of the positive control and no color was detected in the blank wells. To stop the color reaction, 50 μl/well of 10% of Sulfuric acid was added. The plates were counted in ELISA-Reader using a 450 nm filter.
# For that purpose, an enriched ImMucin-specific T cell subpopulation was produced via repeated stimulation with ImMucin. The specificity of the subpopulation for ImMucin, as well as to the other VXL epitopes, was examined using proliferation assays, cytokine release assays, FACS analysis in which the percentage and type of cells enriched during the enrichment process was analyzed, and using a CTL assay against selected target cells.
# For producing the specific T cell subpopulation PBL were stimulated three times for 7, 5 and 2 days with ImMucin presented via DC and PBMC. Following the 3rd stimulation the cells were evaluated against the different VXL epitopes.
sequence,measurement,setting,value
MTPGTQSPFFLLLLLTVLTVV [ImMucin],Lysis % (1:50),MDA-MB-486,0%
same,Lysis % (1:50),Molt-4,1.1%
same,Lysis % (1:50),K562,1.7%
same,Lysis % (1:50),MDA-MB-231,23%
same,Lysis % (1:50),HT-29,0%
same,blood samples in which ImMucin specific activation could be observed,[1],12
same,IL-2 % of clones,[2],83%
same,INF-gamma % of clones,[2],90%
same,TNF-Alfa % of clones,[2],90%
same,TNF-Alfa Range,[2],2.7 to 8.9 ng/mL

# From patent publication US11179452B2, “Antigen specific multi epitope vaccines” (priority 2006, dated 2021)
